Tested on: IL-1β (interleukin-1beta)
Assay: ELISA for IL-1β in LPS-treated HEKa cells
Type: cell-based, human
Settings: LPS-induced inflammatory condition, 10·M, FIG. 10
Experimental: ELISA (enzyme-linked immunosorbent assay) for IL-1β (interleukin-1beta) which is very closely related to atopic inflammation and psoriasis was performed.
As a specific experimental method, HEKa cells (Human Epidermal keratinocytes, adult), human-derived epidermal keratinocytes were seeded on a 24 well plate at a density of 1×10^5 cells, and cultured in an EpiLife medium (1× Human keratinocyte Growth supplement, 1× antibiotics) in an incubator under 37° C. and 5% CO2 for 24 hours.
After culturing, while an inflammatory condition was induced by treatment with LPS (lipopolysaccharides) in each well, further treatment was performed with Compound 8 of the present invention and the compound of the following Comparative Example at a concentration of 10·M, and then the cells were incubated for a certain period. After completing culturing, media were collected, and then ELISA for IL-1β was carried out, and the results are shown in FIG. 10.

O=C(O)CN(CCCCNC(CCCCN(CC(=O)O)CC(=O)O)C(=O)O)CC(=O)O (stereo not shown) [compound of the Comparative Example, reference compound]
cytokine IL-1β secretion level: negligible
